Where two headings read alike, the source gives them in different places.
Molecular target: T1, RT aus HIV-1 (Human immunodeficiency virus type 1 group M subtype B, UniProt P04585)
T1 construct: die gereinigte RT aus HIV-1; made in house; host or cells: E. coli
Assay: Inhibition of reverse transcriptase (RT), screening test system measuring [3H]-thymidine-5'-triphosphate incorporation
Format: biochemical
From the text: Hemmung der Reversen Transkriptase (RT)
Das Screeningtestsystem beinhaltet die gereinigte RT aus HIV-1, die durch gentechnologische Methoden in E. coli exprimiert wurde, sowie die Komponenten des Initiationskomplexes, wie die in-vitro-Transkripte des HIV-LTR's mit der benachbarten Primer Binding Site als Template und einem zur Primer Binding Site komplementären 18mer Oligonukleotid als Primer. Gemessen wurde der [^3H]-Thymidin-5'-triphosphat-Einbau durch Auszählen im β-Counter.

| SMILES | IC50 [nM] | IC50 (purified recombinant RT from HIV-1 expressed in E. coli, HIV-LTR in-vitro transcript as template, 18mer oligonucleotide primer, [3H]-TTP incorporation, β-counter, read-out: Hemmung der HIV-RT IC50) [nM] |
| --- | --- | --- |
| Cc1cccc(C23SCCN2C(=O)Nc2ccccc23)n1 (stereo not shown) [Beispiel 5 f, 10b-(6-Methyl-2-pyridyl)-2,3,6,10b-tetrahydro-5H-thiazolo[3,2-c]quinazolin-5-on] | 200 | – |
| O=C1Nc2ccccc2C2(c3ccccc3)SCCN12 (stereo not shown) [Beispiel 1 b, 10b-Phenyl-2,3,6,10-tetrahydro-5H-thiazolo[3,2-c]quinazolin-5-on] | 470 | – |
| O=C1Nc2ccc(Cl)cc2C2(c3ccccc3)SCCN12 (stereo not shown) [Beispiel 4, 9-Chlor-10b-phenyl-2,3,6,10b-tetrahydro-5H-thiazolo[3,2-c]quinazolin-5-on] | – | 30 |
| Cc1cccc(C23SCCN2C(=O)Nc2ccccc23)c1 (stereo not shown) [Beispiel 5 b, 10b-(3-Methylphenyl)-2,3,6,10b-tetrahydro-5H-thiazolo[3,2-c]quinazolin-5-on] | 30 | – |
| O=C1Nc2ccccc2C2(c3ccccc3)SCCCN12 (stereo not shown) [Beispiel 2, 11b-Phenyl-3,4,7,11b-tetrahydro-2H,6H-[1,3]thiazino[3,2-c]quinazolin-6-on] | 510 | – |
| CN1C(=O)N2CCSC2(c2ccccc2)c2ccccc21 (stereo not shown) [Beispiel 6, 6-Methyl-10b-phenyl-2,3,6,10b-tetrahydro-5H-thiazolo [3,2-c]quinazolin-5-on] | 6200 | – |
| S=C1Nc2ccccc2C2(c3ccccc3)SCCN12 (stereo not shown) [Beispiel 7, 10b-Phenyl-2,3,6,10b-tetrahydro-5H-thiazolo[3,2-c]quinazolin-5-thion] | 30 | – |

From EP0640088B1, “NOVEL TRICYCLIC THIAZOLO AND THIAZINO DERIVATIVES AND ANTI-VIRAL MEDICAMENTS CONTAINING THEM” (BOEHRINGER MANNHEIM GMBH, priority 1992, dated 1993)
